Measured values taken from US20220175781A1, “CD40L COMPOSITIONS AND METHODS FOR TUNABLE REGULATION” (Obsidian Therapeutics, Inc., priority 2019, published 2022).

How the values were obtained:
[1] = system: T cells; experiment: Dose response of TMP, Bazedoxifene or Raloxifene, % CD40L positive T cells; assay type: cell-based; conditions: T cells expressing OT-001666
Procedure: T cells were transduced with OT-001662 or OT-001666. On day 4, cells were treated with increasing doses of TMP for T cells expressing OT-001662. Cells expressing OT-001666 were treated either with increasing concentrations of Bazedoxifene or Raloxifene. The data are shown in Table 30 as the percentage of CD40L positive T cells.

[2] = system: T cells (CD4+ and CD8+ subsets); experiment: Vardenafil dose response of CD40L surface expression in T cells, CD4+ and CD8+ subsets; assay type: cell-based; design: key to SR: ratio of CD40L expression with vardenafil to expression without it; conditions: OT-001892 transduced T cells
Procedure: T cells were transduced with 10 μL of lentivirus corresponding to OT-001892. 4 days after transduction, cells were treated with increasing concentrations of ligand (Vardenafil) or vehicle control for 24 hours. Surface expression of CD40L in T cells as well as the CD4+ and CD8+ subsets was analyzed by FACS. The stabilization ratio (SR) may be defined as the ratio of expression, CD40L in response to vardenafil to the expression of CD40L in the absence of vardenafil.

[3] = system: T cells (CD4 and CD8 positive); experiment: Bazedoxifene dose response, CD40L MFI in CD4 and CD8 positive T cells (day 4, freeze/thaw, restimulation); assay type: cell-based; conditions: T cells, Bazedoxifene dose response
Procedure: Dose response with Bazedoxifene in T cells were conducted for OT-001966, OT-001967, OT-001666. Expression of CD40L was measured at (a) day 4 after transduction, (b) after freezing and thawing the cells or (c) after freezing and thawing the cells followed by restimulation with CD3/CD28 beads. The CD40L MFI (median fluorescence intensity) within CD4 and CD8 positive subpopulations is shown in Table 34 and Table 35 respectively.

[4] = target: CD40 (UniProt P25942); experiment: cell-based or functional assay
[5] = system: T cells (CD4 and CD8); experiment: Cleavage resistant CD40L expression and TMP regulation in T cells; assay type: cell-based; conditions: T cells, 10 μM TMP 24 hours, CD4 and CD8 populations
Procedure: T cells were transduced with OT-001668 and on day 4, the percentage of CD40L expressing T cells (within the both CD4 and CD8) subpopulations was calculated.
T cells were transduced with ecDHFR regulated construct OT-001671 that include a CD40L protein that was resistant to cleavage. On day 4 cells were treated with 10 μM TMP for 24 hours. […] In an independent experiment, T cells transduced with varying volumes of virus corresponding to OT-001671 were treated with increasing doses of TMP for 24 hours. In Table 41, 0.5 μL, 2 μL, and 10 μL indicate the different volumes of virus that were used.

[6] = All Cells, Vardenafil 0.0001 μM
[7] = CD4+ Cells, Vardenafil 0.0001 μM
[8] = CD4+ Cells, Vardenafil 0.001 μM
[9] = CD8+ Cells, Vardenafil 0.0001 μM
[10] = CD8+ Cells, Vardenafil 0.001 μM

Chain of CD40 (P25942 21-277 limits assumed): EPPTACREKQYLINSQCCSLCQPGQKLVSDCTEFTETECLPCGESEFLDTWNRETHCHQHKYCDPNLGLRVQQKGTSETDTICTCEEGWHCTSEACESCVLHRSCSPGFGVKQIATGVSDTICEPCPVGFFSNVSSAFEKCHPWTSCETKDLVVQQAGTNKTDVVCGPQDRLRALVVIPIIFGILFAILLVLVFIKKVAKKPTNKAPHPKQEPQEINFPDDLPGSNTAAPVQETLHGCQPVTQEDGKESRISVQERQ

For `Cc1c(-c2ccc(O)cc2)n(Cc2ccc(OCCN3CCCCCC3)cc2)c2ccc(O)cc12` [Bazidoxefene], the “Percent of cells expressing CD40L” value ([1]; Dose 0.0001 μM) was 4.88%, the “Percent of cells expressing CD40L” value ([1]; Dose 0.001 μM) was 5.17% and the “Percent of cells expressing CD40L” value ([1]; Dose 0.01 μM) was 5.42%. The “Percent of cells expressing CD40L” value ([1]; Dose 0.1 μM) was 7.67% and the “Percent of cells expressing CD40L” value ([1]; Dose 1 μM) was 13.5%.

`CCCc1nc(C)c2c(=O)[nH]c(-c3cc(S(=O)(=O)N4CCN(CC)CC4)ccc3OCC)nn12` [Vardenafil] gave an MFI [2, 6] of 274, an SR [2, 6] of 1.31 and an MFI ([2]; All Cells, Vardenafil 0.001 μM) of 260. It also gave an SR ([2]; All Cells, Vardenafil 0.001 μM) of 1.24, an MFI ([2]; All Cells, Vardenafil 0.01 μM) of 265 and an SR ([2]; All Cells, Vardenafil 0.01 μM) of 1.27. It also gave an MFI ([2]; All Cells, Vardenafil 0.1 μM) of 311, an SR ([2]; All Cells, Vardenafil 0.1 μM) of 1.49 and an MFI ([2]; All Cells, Vardenafil 1 μM) of 405. For the same molecule, the SR ([2]; All Cells, Vardenafil 1 μM) was 1.94, the MFI ([2]; All Cells, Vardenafil 10 μM) was 747 and the SR ([2]; All Cells, Vardenafil 10 μM) was 3.57. For the same molecule, the MFI ([2]; All Cells, Vardenafil 100 μM) was 1168, the SR ([2]; All Cells, Vardenafil 100 μM) was 5.59 and the MFI [2, 7] was 313. For the same molecule, the SR [2, 7] was 1.38, the MFI [2, 8] was 291 and the SR [2, 8] was 1.28. It also gave an MFI ([2]; CD4+ Cells, Vardenafil 0.01 μM) of 304, an SR ([2]; CD4+ Cells, Vardenafil 0.01 μM) of 1.34 and an MFI ([2]; CD4+ Cells, Vardenafil 0.1 μM) of 359. The SR ([2]; CD4+ Cells, Vardenafil 0.1 μM) was 1.58, the MFI ([2]; CD4+ Cells, Vardenafil 1 μM) was 482 and the SR ([2]; CD4+ Cells, Vardenafil 1 μM) was 2.12. It also gave an MFI ([2]; CD4+ Cells, Vardenafil 10 μM) of 930, an SR ([2]; CD4+ Cells, Vardenafil 10 μM) of 4.10 and an MFI ([2]; CD4+ Cells, Vardenafil 100 μM) of 1367. It also gave an SR ([2]; CD4+ Cells, Vardenafil 100 μM) of 6.02, an MFI [2, 9] of 166 and an SR [2, 9] of 1.15. It also gave an MFI [2, 10] of 166, an SR [2, 10] of 1.15 and an MFI ([2]; CD8+ Cells, Vardenafil 0.01 μM) of 162. For the same molecule, the SR ([2]; CD8+ Cells, Vardenafil 0.01 μM) was 1.13, the MFI ([2]; CD8+ Cells, Vardenafil 0.1 μM) was 171 and the SR ([2]; CD8+ Cells, Vardenafil 0.1 μM) was 1.19. It also gave an MFI ([2]; CD8+ Cells, Vardenafil 1 μM) of 186, an SR ([2]; CD8+ Cells, Vardenafil 1 μM) of 1.29 and an MFI ([2]; CD8+ Cells, Vardenafil 10 μM) of 340. The SR ([2]; CD8+ Cells, Vardenafil 10 μM) was 2.36, the MFI ([2]; CD8+ Cells, Vardenafil 100 μM) was 620 and the SR ([2]; CD8+ Cells, Vardenafil 100 μM) was 4.31.

With `Cc1c(-c2ccc(O)cc2)n(Cc2ccc(OCCN3CCCCCC3)cc2)c2ccc(O)cc12` [Bazedoxifene, reference compound] the cell health [3] was “affected cell health at highest dose”.

In the case of `O=C(c1ccc(OCCN2CCCCC2)cc1)c1c(-c2ccc(O)cc2)sc2cc(O)ccc12` [Raloxifene], the “Percent of cells expressing CD40L” value ([1]; Dose 0.0001 μM) is reported as 4.67%, the “Percent of cells expressing CD40L” value ([1]; Dose 0.001 μM) is reported as 5.01% and the “Percent of cells expressing CD40L” value ([1]; Dose 0.01 μM) is reported as 5%. The “Percent of cells expressing CD40L” value ([1]; Dose 0.1 μM) was 5.18% and the “Percent of cells expressing CD40L” value ([1]; Dose 1 μM) was 7.1%.

“OT-001662 (Met; Linker (SG); ecDHFR (M1del, R12Y, Y100I); Histidine residue; CD40L; stop) (ligand)” was tested, and the IFNg (pg/ml), 2-day co-culture of transduced T cells with mDC, DMSO (DRD not stabilised) [4] was 3790 pg/mL, the IFNg (pg/ml), 2-day co-culture of transduced T cells with mDC, TMP (0.1 µM) [4] was 7430 pg/mL and the IFNg (pg/ml), 2-day co-culture of transduced T cells with mDC, TMP (0.5 µM) [4] was 3590 pg/mL. For the same molecule, the IFNg (pg/ml), 2-day co-culture of transduced T cells with mDC, TMP (2 µM) [4] was 16400 pg/mL, the IFNg (pg/ml), 2-day co-culture of transduced T cells with mDC, TMP (10 µM) [4] was 13500 pg/mL and the IL12 (pg/ml), 2-day co-culture of transduced T cells with mDC, DMSO (DRD not stabilised) [4] was 0.254 pg/mL. The IL12 (pg/ml), 2-day co-culture of transduced T cells with mDC, TMP (0.1 µM) [4] was 0.0705 pg/mL, the IL12 (pg/ml), 2-day co-culture of transduced T cells with mDC, TMP (2 µM) [4] was 19.4 pg/mL and the IL12 (pg/ml), 2-day co-culture of transduced T cells with mDC, TMP (10 µM) [4] was 59.3 pg/mL. The SEAP reporter of HEK-Blue CD40 cells co-cultured 24 hours with transduced Jurkat cells plus 50 µM TMP, given as Soluble CD40L (pg/ml) against a recombinant soluble CD40L standard [4] was 8660 pg/mL, the TNFa (pg/ml), 2-day co-culture of transduced T cells with mDC, DMSO (DRD not stabilised) [4] was 82.3 pg/mL and the TNFa (pg/ml), 2-day co-culture of transduced T cells with mDC, TMP (0.1 µM) [4] was 131 pg/mL. For the same molecule, the TNFa (pg/ml), 2-day co-culture of transduced T cells with mDC, TMP (0.5 µM) [4] was 83.9 pg/mL, the TNFa (pg/ml), 2-day co-culture of transduced T cells with mDC, TMP (2 µM) [4] was 249 pg/mL and the TNFa (pg/ml), 2-day co-culture of transduced T cells with mDC, TMP (10 µM) [4] was 251 pg/mL.

B1: OT-001671: ecDHFR regulated construct that includes a CD40L protein resistant to cleavage (protein)
chain: MSGISLIAALAVDYVIGMENAMPWNLPADLAWFKRNTLNKPVIMGRHTWESIGRPLPGRKNIILSSQPGTDDRVTWVKSVDEAIAACGDVPEIMVIGGGRVIEQFLPKAQKLYLTHIDAEVEGDTHFPDYEPDDWESVFSEFHDADAQNSHSYCFEILERRHMIETYNQTSPRSAATGLPISMKIFMYLLTVFLITQMIGSALFAVYLHRRLDKIEDERNLHEDFVFMKTIQRCNTGERSLSLLNCEEIKSQFEGFVKDIMLNKEETKKENDQNPQIAAHVISEASSKTTSVLQWAEKGYYTMSNNLVTLENGKQLTVKRQGLYYIYAQVTFCSNREASSQAPFIASLCLKSPGRFERILLRAANTHSSAKPCGQQSIHLGGVFELQPGASVFVNVTDPSQVSHGTGFTSFGLLKL
In the case of B1, the “TMP-mediated regulation of CD40L expression” value [5] is reported as “TMP-mediated Regulation of CD40L expression was observed”.
